Data taken from the NIST ThermoML archive (doi:10.1021/je700205n).
Numbers after ± are expanded uncertainties.

Conditions: Liquid

CCCCCCCCn1cc[n+](C)c1.O=S(=O)([N-]S(=O)(=O)C(F)(F)F)C(F)(F)F
mass density [kg/m3]
Conditions	293.15 K	303.15 K	313.15 K	323.15 K	333.15 K	343.15 K	353.15 K	393.15 K
100 kPa	1328 ± 3	1315 ± 3	1305 ± 3	1296 ± 3	1286 ± 3	1278 ± 3	1269 ± 3	1236 ± 3
1000 kPa	1328 ± 3	1316 ± 3	1306 ± 3	1296 ± 3	1287 ± 3	1278 ± 3	1270 ± 3	1237 ± 3
2000 kPa	1329 ± 3	1317 ± 3	1307 ± 3	1297 ± 3	1288 ± 3	1279 ± 3	1270 ± 3	1238 ± 3
3000 kPa	1330 ± 3	1317 ± 3	1307 ± 3	1298 ± 3	1289 ± 3	1280 ± 3	1271 ± 3	1239 ± 3
4000 kPa	1330 ± 4	1318 ± 3	1308 ± 3	1299 ± 3	1289 ± 3	1281 ± 3	1272 ± 3	1240 ± 3
5000 kPa	1331 ± 4	1319 ± 4	1309 ± 3	1299 ± 3	1290 ± 3	1282 ± 3	1273 ± 3	1241 ± 3
7500 kPa	1333 ± 4	1321 ± 4	1311 ± 4	1301 ± 4	1292 ± 4	1284 ± 4	1275 ± 3	1243 ± 3
10000 kPa	1334 ± 4	1322 ± 4	1312 ± 4	1303 ± 4	1294 ± 4	1286 ± 4	1277 ± 4	1246 ± 3
15000 kPa	1338 ± 4	1326 ± 4	1316 ± 4	1307 ± 4	1298 ± 4	1290 ± 4	1282 ± 4	1251 ± 4
20000 kPa	1341 ± 5	1329 ± 5	1320 ± 5	1311 ± 5	1302 ± 5	1294 ± 4	1286 ± 4	1256 ± 4
25000 kPa	1345 ± 5	1333 ± 5	1324 ± 5	1315 ± 5	1306 ± 5	1298 ± 5	1290 ± 5	1261 ± 4
30000 kPa	1348 ± 6	1337 ± 6	1327 ± 6	1319 ± 6	1310 ± 6	1303 ± 5	1294 ± 5	1266 ± 5

CCn1cc[n+](C)c1.F[B-](F)(F)F [1-ethyl-3-methylimidazolium tetrafluoroborate]
mass density [kg/m3]
Conditions	293.15 K	303.15 K	313.15 K	323.15 K	333.15 K	343.15 K	353.15 K	393.15 K
100 kPa	1305 ± 3	1296 ± 2	1288 ± 2	1280 ± 2	1272 ± 2	1264 ± 2	1257 ± 2	1229 ± 2
1000 kPa	1305 ± 3	1296 ± 3	1288 ± 3	1280 ± 2	1272 ± 2	1265 ± 2	1257 ± 2	1230 ± 2
2000 kPa	1306 ± 3	1297 ± 3	1289 ± 3	1281 ± 3	1273 ± 3	1265 ± 3	1258 ± 2	1230 ± 2
3000 kPa	1306 ± 3	1297 ± 3	1289 ± 3	1281 ± 3	1273 ± 3	1266 ± 3	1258 ± 3	1231 ± 2
4000 kPa	1307 ± 3	1298 ± 3	1290 ± 3	1282 ± 3	1274 ± 3	1266 ± 3	1259 ± 3	1231 ± 3
5000 kPa	1307 ± 3	1298 ± 3	1290 ± 3	1282 ± 3	1274 ± 3	1267 ± 3	1259 ± 3	1232 ± 3
7500 kPa	1308 ± 3	1299 ± 3	1291 ± 3	1283 ± 3	1275 ± 3	1268 ± 3	1261 ± 3	1233 ± 3
10000 kPa	1309 ± 3	1300 ± 3	1292 ± 3	1284 ± 3	1277 ± 3	1269 ± 3	1262 ± 3	1235 ± 3
15000 kPa	1311 ± 3	1303 ± 3	1295 ± 3	1287 ± 3	1279 ± 3	1272 ± 3	1264 ± 3	1238 ± 3
20000 kPa	1313 ± 4	1305 ± 4	1297 ± 4	1289 ± 4	1281 ± 4	1274 ± 4	1267 ± 3	1240 ± 3
25000 kPa	1316 ± 4	1307 ± 4	1299 ± 4	1291 ± 4	1284 ± 4	1277 ± 4	1269 ± 4	1243 ± 4
30000 kPa	1318 ± 5	1309 ± 5	1301 ± 4	1294 ± 4	1286 ± 4	1279 ± 4	1272 ± 4	1246 ± 4

CCCCCCCn1cc[n+](C)c1.O=S(=O)([N-]S(=O)(=O)C(F)(F)F)C(F)(F)F
mass density [kg/m3]
Conditions	293.15 K	303.15 K	313.15 K	323.15 K	333.15 K	343.15 K	353.15 K	393.15 K
100 kPa	1352 ± 3	1342 ± 3	1332 ± 3	1322 ± 3	1313 ± 3	1304 ± 3	1295 ± 3	1261 ± 3
1000 kPa	1353 ± 3	1343 ± 3	1333 ± 3	1323 ± 3	1314 ± 3	1304 ± 3	1296 ± 3	1262 ± 3
2000 kPa	1354 ± 3	1343 ± 3	1333 ± 3	1324 ± 3	1315 ± 3	1305 ± 3	1296 ± 3	1263 ± 3
3000 kPa	1354 ± 4	1344 ± 4	1334 ± 3	1325 ± 3	1316 ± 3	1306 ± 3	1297 ± 3	1264 ± 3
4000 kPa	1355 ± 4	1345 ± 4	1335 ± 4	1325 ± 3	1317 ± 3	1307 ± 3	1298 ± 3	1265 ± 3
5000 kPa	1356 ± 4	1346 ± 4	1336 ± 4	1326 ± 4	1317 ± 4	1308 ± 3	1299 ± 3	1266 ± 3
7500 kPa	1358 ± 4	1347 ± 4	1338 ± 4	1328 ± 4	1319 ± 4	1310 ± 4	1301 ± 4	1268 ± 3
10000 kPa	1359 ± 4	1349 ± 4	1339 ± 4	1330 ± 4	1321 ± 4	1312 ± 4	1303 ± 4	1271 ± 4
15000 kPa	1363 ± 5	1353 ± 5	1343 ± 4	1334 ± 4	1325 ± 4	1316 ± 4	1308 ± 4	1276 ± 4
20000 kPa	1366 ± 5	1357 ± 5	1347 ± 5	1338 ± 5	1329 ± 5	1320 ± 5	1312 ± 5	1281 ± 4
25000 kPa	1370 ± 6	1360 ± 6	1351 ± 6	1342 ± 5	1333 ± 5	1324 ± 5	1316 ± 5	1285 ± 5
30000 kPa	1373 ± 6	1364 ± 6	1355 ± 6	1345 ± 6	1337 ± 6	1328 ± 6	1320 ± 6	1290 ± 5

CCn1cc[n+](C)c1.O=S(=O)([N-]S(=O)(=O)C(F)(F)F)C(F)(F)F
mass density [kg/m3]
Conditions	293.15 K	303.15 K	313.15 K	323.15 K	333.15 K	343.15 K	353.15 K	393.15 K
100 kPa	1526 ± 4	1514 ± 4	1503 ± 4	1493 ± 4	1482 ± 4	1472 ± 4	1461 ± 4	1424 ± 4
1000 kPa	1526 ± 4	1515 ± 4	1504 ± 4	1493 ± 4	1483 ± 4	1472 ± 4	1462 ± 4	1424 ± 4
2000 kPa	1527 ± 4	1516 ± 4	1505 ± 4	1494 ± 4	1483 ± 4	1473 ± 4	1463 ± 4	1425 ± 4
3000 kPa	1528 ± 4	1517 ± 4	1506 ± 4	1495 ± 4	1484 ± 4	1474 ± 4	1464 ± 4	1426 ± 4
4000 kPa	1528 ± 5	1517 ± 4	1506 ± 4	1496 ± 4	1485 ± 4	1475 ± 4	1465 ± 4	1427 ± 4
5000 kPa	1529 ± 5	1518 ± 5	1507 ± 5	1496 ± 4	1486 ± 4	1476 ± 4	1466 ± 4	1428 ± 4
7500 kPa	1531 ± 5	1520 ± 5	1509 ± 5	1498 ± 5	1488 ± 5	1478 ± 5	1468 ± 5	1431 ± 4
10000 kPa	1533 ± 5	1522 ± 5	1511 ± 5	1500 ± 5	1490 ± 5	1480 ± 5	1470 ± 5	1433 ± 5
15000 kPa	1536 ± 6	1525 ± 6	1515 ± 6	1504 ± 6	1494 ± 6	1484 ± 6	1474 ± 6	1438 ± 5
20000 kPa	1540 ± 7	1529 ± 7	1518 ± 7	1508 ± 7	1498 ± 7	1488 ± 7	1478 ± 6	1443 ± 6
25000 kPa	1543 ± 8	1532 ± 8	1522 ± 8	1512 ± 8	1502 ± 8	1492 ± 7	1483 ± 7	1448 ± 7
30000 kPa	1547 ± 9	1536 ± 9	1526 ± 9	1516 ± 9	1506 ± 8	1496 ± 8	1487 ± 8	1453 ± 8
